{"source": "ChEMBL document CHEMBL1157384", "about": "“Apratoxin D, a potent cytotoxic cyclodepsipeptide from papua new guinea collections of the marine cyanobacteria Lyngbya majuscula and Lyngbya sordida” (J Nat Prod, 2008)", "tested_on": "NCI-H460", "test": "Cytotoxicity against human H460 cells after 48 hrs by MTT assay", "assay_type": "functional, cell-based", "details": "NCI-H460, 48 h"}
{"molecule": "CC[C@H](C)[C@H]1C(=O)N2CCC[C@H]2C(=O)O[C@H]([C@@H](C)CC(C)(C)C)C[C@@H](C)C[C@H](O)[C@H](C)C2=N[C@@H](/C=C(\\C)C(=O)N[C@@H](Cc3ccc(OC)cc3)C(=O)N(C)[C@@H](C)C(=O)N1C)CS2", "note": "[APRATOXIN D]", "values": [{"measurement": "IC50", "result": 2.6, "unit": "nM"}]}
